The species named for assay [1] is Rattus norvegicus. Nature of the assay: Activation of rat Na(+)/K(+) ATPase assessed as increase in maximum velocity relative to control.
The species named for assay [2] is Mus musculus. Nature of the assay: Antiatherosclerotic activity in Apoe-/- mouse assessed as attenuation of coronary artery illness relative to control. It counts as functional.
The species named for assay [3] is Mus musculus. Nature of the assay: Effect on triglyceride level in serum of high fat diet induced mouse model assessed as reduction in triglycerides level relative to control. In kind it is functional. The arrangement: scale not given: the % may be the effect or the level left.
Assay [4] is filed under the species Oryctolagus cuniculus. Description: Cardioprotective activity in rabbit model assessed as conductivity relaxation at 5.6 uM. It counts as functional. Also on record: scale not given: the % may be the effect or the level left.
Assay [5] is filed under the species Oryctolagus cuniculus. Nature of the assay: Cardioprotective activity in rabbit model assessed as conductivity relaxation at 30 uM. It counts as functional. Also on record: scale not given: the % may be the effect or the level left.
The species named for assay [6] is Mus musculus. Nature of the assay: Effect on oleic level in serum of high fat diet induced mouse model assessed as reduction in oleic level relative to control. It counts as functional. Also on record: scale not given: the % may be the effect or the level left.
In assay [7] the test system is Mus musculus. Description: Cardioprotection in […] assessed as decrease in mean arterial pressure at 5 to 10 mg/kg, po measured after 13 weeks relative control. In kind it is functional. Also on record: scale not given: the % may be the effect or the level left. The conditions noted are these: dose 5-10 mg/kg.
For assay [8], the species on record is Mus musculus. Description: Effect on linoleic level in serum of high fat diet induced mouse model assessed as reduction in linoleic level relative to control. It counts as functional. Also on record: scale not given: the % may be the effect or the level left.
For assay [9], the species on record is Oryctolagus cuniculus. Nature of the assay: Cardioprotective activity in rabbit model assessed as resistance relaxation at 5.6 uM. It counts as functional. The arrangement: scale not given: the % may be the effect or the level left.
The species named for assay [10] is Mus musculus. Nature of the assay: Effect on palmitic level in serum of high fat diet induced mouse model assessed as reduction in palmitic level relative to control. In kind it is functional. The arrangement: scale not given: the % may be the effect or the level left.
The species entered for assay [11] is Oryctolagus cuniculus. Nature of the assay: Cardioprotective activity in rabbit model assessed as conductivity relaxation at 8 uM. It counts as functional. The arrangement: scale not given: the % may be the effect or the level left.
The species named for assay [12] is Oryctolagus cuniculus. Description: Cardioprotective activity in rabbit model assessed as resistance relaxation at 8 uM. In kind it is functional. The arrangement: scale not given: the % may be the effect or the level left.
The species entered for assay [13] is Oryctolagus cuniculus. Description: Cardioprotective activity in rabbit model assessed as resistance relaxation at 30 uM. The arrangement: scale not given: the % may be the effect or the level left. It counts as functional.
The subject of assay [14] is Rattus norvegicus. Nature of the assay: Hypotensive effect in rat at 100 nmol/kg,po. It counts as functional.

As for `O=c1c(O)c(-c2ccc(O)c(O)c2)oc2cc(O)cc(O)c12` [QUERCETIN], the Activity in the assay listed under Rattus norvegicus [1] was 15%; in the assay filed under Mus musculus [2], 86%; in the assay filed under Mus musculus [3], 14%; in the assay filed under Oryctolagus cuniculus [4], -20%; in the assay listed under Oryctolagus cuniculus [5], -72%; in the assay filed under Mus musculus [6], 9%. In addition, the Activity was -12% with Mus musculus [7]; 9% in the assay filed under Mus musculus [8]; -3.2% in the assay listed under Oryctolagus cuniculus [9]; 9% in the assay filed under Mus musculus [10]; -3.2% in the assay listed under Oryctolagus cuniculus [11]; -47% in the assay filed under Oryctolagus cuniculus [12]. Besides, the Activity in the assay filed under Oryctolagus cuniculus [13] is -82%.

Consider `C[C@H](CS)C(=O)N1CCC[C@H]1C(=O)O` [CAPTOPRIL], for which the Activity in the assay on Rattus norvegicus [14] turned out to be 29.7 mmHg.

(Values after ChEMBL document CHEMBL5260835, “Therapeutic potential of quercetin as a cardiovascular agent” (2018).)
